Assay results reported in US12576099B2, “Ribose-modified cap analog and use thereof” (Beijing Youcare Kechuang Pharmaceutical Technology Co., Ltd., priority 2024, dated 2026).

Key:
[1] = system: HEK293T cells; experiment: Translation efficiency of different capped luciferase mRNAs; type: cell-based; settings: for Multiple of m6A (relative fluorescence intensity): relative to m6A; for Relative fluorescence intensity: HEK293T, 0.5 μg mRNA per well, 24 hours, proportional to translation efficiency
Procedure: • (1) HEK293T cells were cultured in DMEM medium containing 10% FBS and penicillin/streptomycin at 37° C. with 5% CO2. • (2)Cells in the culture dish were digested and counted, then spread in a 96-well plate at 10,000 cells per well, and cultured overnight until the cells adhered to the wall. • (3) When the cell density reached approximately 80%, transfection was performed by adding 0.5 μg of mRNA sample and Lipofectamine MessengerMAX Transfection Reagent (Invitrogen) per well according to the manufacturer's instructions. • (4) After the transfected cells were cultured at 37° C. with 5% CO2 for 24 hours, the growth medium was removed from the cells to be tested, and the cells were rinsed with PBS. After centrifugation to remove PBS, 50 μL of 1× lysis buffer was added. The cells and all liquid were transferred to a microcentrifuge tube and centrifuged. • (5) 20 μL of sample was taken and added to 100 μL of Dual-Lumi™ II Luciferase Assay Reagent pre-equilibrated to room temperature, and mixed appropriately. • (6) The mixture was incubated at room temperature (approximately 25° C.) for 5 minutes to stabilize the luminescence signal. Chemiluminescence was detected using a multifunctional microplate reader with a function for detecting chemiluminescence, and the data were recorded.
The relative fluorescence intensity is proportional to the translation efficiency of mRNA.

[2] = target: T1, T7 RNA polymerase (Escherichia phage T7, UniProt P00573); experiment: Capping rate of mRNA transcription initiated by cap analogs (LC-MS); type: biochemical; settings: for Capping rate: LC-MS of mRNA 5′ fragment
T1 sequence (P00573 whole entry, the tested form may be a part): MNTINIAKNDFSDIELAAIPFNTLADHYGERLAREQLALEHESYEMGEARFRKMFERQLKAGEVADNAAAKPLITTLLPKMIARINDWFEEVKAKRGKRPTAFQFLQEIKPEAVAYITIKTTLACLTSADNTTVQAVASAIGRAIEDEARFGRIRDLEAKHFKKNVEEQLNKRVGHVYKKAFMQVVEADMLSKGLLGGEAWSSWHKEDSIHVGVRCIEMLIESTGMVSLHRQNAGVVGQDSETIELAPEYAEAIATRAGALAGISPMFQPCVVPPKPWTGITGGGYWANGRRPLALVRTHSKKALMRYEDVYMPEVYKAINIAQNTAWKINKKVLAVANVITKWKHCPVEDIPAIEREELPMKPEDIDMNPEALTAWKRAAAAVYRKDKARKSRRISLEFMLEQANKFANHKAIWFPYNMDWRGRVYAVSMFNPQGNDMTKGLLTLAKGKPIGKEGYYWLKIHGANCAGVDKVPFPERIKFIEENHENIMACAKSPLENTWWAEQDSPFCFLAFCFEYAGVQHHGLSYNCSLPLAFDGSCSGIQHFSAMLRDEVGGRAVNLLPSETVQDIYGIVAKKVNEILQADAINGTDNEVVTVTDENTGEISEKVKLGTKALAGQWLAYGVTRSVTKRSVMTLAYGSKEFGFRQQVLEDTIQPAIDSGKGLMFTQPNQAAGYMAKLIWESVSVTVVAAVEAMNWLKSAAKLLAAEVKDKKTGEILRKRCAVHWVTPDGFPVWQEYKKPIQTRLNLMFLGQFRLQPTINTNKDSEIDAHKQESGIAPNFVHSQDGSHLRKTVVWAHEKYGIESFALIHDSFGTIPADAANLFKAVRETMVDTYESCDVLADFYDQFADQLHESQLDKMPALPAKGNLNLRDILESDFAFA
Procedure: (§1) During the experiment, the volume of materials required for the system was first calculated, and then sample addition was conducted. The system was first added with sterile enzyme-free water, followed by the sequential addition of 10× buffer, NTPs, and cap analogs, mixed well, and gently centrifuged. Nuclease inhibitors, inorganic pyrophosphatase, T7RNA polymerase, and linearized DNA templates were then added thereto. The system was mixed well, gently centrifuged, and incubated at 37° C. After 2 hours of incubation, the system was added with 1 U of DNase I and incubated at 37° C. for another 30 minutes. The mRNA precipitate was then washed with 75% ethanol, and after the ethanol was briefly evaporated to dryness, the mRNA was redissolved in sterile enzyme-free water. • (3) The transcription product was purified, and the in vitro transcription yield of mRNA was recorded. • (4) The obtained mRNA was subjected to an annealing reaction with a probe.
The annealing reaction was performed in a PCR instrument: 95° C. for 5 minutes; 65° C. for 2 minutes; 55° C. for 2 minutes; 40° C. for 2 minutes; 22° C. for 2 minutes. • (5) Magnetic bead pretreatment and probe binding: 100 μL of magnetic beads was placed on a magnetic frame for pretreatment. The magnetic bead solution was added with 120 μL of sample and incubated at room temperature for 30 minutes with slow mixing. • (6) mRNA splicing and obtaining the mRNA 5′ single-strand sequence bound to the probe
The mixture was added with 20 μL of RNase H (5 U/μL) and incubated at 37° C. for 3 hours with mixing every half hour. After incubation, the magnetic beads were washed and then added with 100 μL of 75% methanol heated to 80° C. The mixture was heated to 80° C. on a heating plate, held for 3 minutes, then placed on a magnetic frame to aspirate the supernatant, and dried at room temperature for 45 minutes to a volume of 10 μL using a centrifugal evaporator. The sample was then resuspended in 50 μL of 100 μM EDTA/1% MeOH and ready for LC-MS analysis to determine the capping of RNA in the transcription reaction. Since there is a significant difference in molecular weight between capped and uncapped bases, the capping rate of mRNA transcription initiated by different cap analogs can be determined based on the difference in molecular mass.

[3] = target: T2, DCP2 enzyme (Schizosaccharomyces pombe, UniProt O13828); experiment: Decapping enzyme stability test; type: biochemical; settings: for Decapping rate (%) of DCP2 enzyme: 50 U mRNA decapping enzyme, 37° C., 45 minutes
T2 construct: purchased New England Biolabs
T2 sequence (O13828 1-243 limits assumed): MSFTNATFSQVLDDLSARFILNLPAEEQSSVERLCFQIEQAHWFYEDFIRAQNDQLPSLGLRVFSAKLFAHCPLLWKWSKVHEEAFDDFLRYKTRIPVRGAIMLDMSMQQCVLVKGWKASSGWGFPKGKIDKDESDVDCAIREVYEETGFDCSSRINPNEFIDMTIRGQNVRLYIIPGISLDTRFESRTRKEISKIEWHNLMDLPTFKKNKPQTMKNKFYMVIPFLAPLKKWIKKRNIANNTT
T2 sequence (Q9P805 1-127 partner): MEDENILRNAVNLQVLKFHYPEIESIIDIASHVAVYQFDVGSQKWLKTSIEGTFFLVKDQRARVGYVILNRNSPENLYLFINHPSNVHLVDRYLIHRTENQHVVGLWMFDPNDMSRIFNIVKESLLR
T2 sequence (Q10108 155-180 partner limits assumed): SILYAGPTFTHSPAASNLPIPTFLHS
Procedure: […] of RNA purified by polyacrylamide gel electrophoresis (PAGE) was subjected to an enzymatic reaction with 50 U of mRNA decapping enzyme (New England Biolabs) and 1×MDE buffer at 37° C. for 45 minutes. The enzymatic reactants were subjected to PAGE and stained with SYBR Green II (Lonza), followed by observation of the post-electrophoresis gel image on a Typhoon FLA 7000 (GE Healthcare) instrument. The electrophoresis band intensity ratio of RNA capping to RNA decapping was counted using ImageQuant (GE Healthcare) software, and the decapping rate of the decapping enzyme was calculated.

[4] = Characterization of lipid nanoparticles encapsulating Fluc-mRNA prepared from different cap structures; type: physicochemical; settings: for Particle size: LNP (YK-009/DSPC/cholesterol/DMG-PEG2000) with Fluc-mRNA transcribed using the named cap analog; for PDI: LNP with Fluc-mRNA transcribed using the named cap analog; for EE: encapsulation efficiency of LNP with Fluc-mRNA transcribed using the named cap analog
Procedure: Cationic lipid YK-009 (Beijing Youcare Kechuang Pharmaceutical Technology Co., Ltd.), DSPC (AVT (Shanghai) Pharmaceutical Technology Co., Ltd.), cholesterol (AVT (Shanghai) Pharmaceutical Technology Co., Ltd.), and DMG-PEG2000 were dissolved in ethanol at a molar ratio of 49:10:39.5:1.5, and the mRNA was diluted in 50 mM citrate buffer (pH=4). The ethanol lipid solution was mixed with the Fluc-mRNA aqueous solution prepared from different cap structures at a volume ratio of 1:3 using a microfluidic device at a flow rate of 10 mL/min to prepare LNPs at a weight ratio of total lipid to mRNA of approximately 15:1.
The resulting liposomes were diluted to 10-fold volume with PBS, and then ultrafiltered with a 300 KDa ultrafiltration tube to remove ethanol. The volume was then fixed to a certain volume with PBS. Finally, the LNPs were filtered through a 0.2 μm sterile filter to obtain an LNP preparation encapsulating Fluc-mRNA using YK-009/DSPC/cholesterol/DMG-PEG2000 (at a molar ratio of 49:10:39.5:1.5).
The particle size and polydispersity index (PDI) were determined by dynamic light scattering using a Malvern laser particle size analyzer. 10 μL of the liposome solution was taken, diluted to 1 mL with RNase-free deionized water, and added to a sample pool. Each sample was measured in triplicate. The measurement conditions were: a scattering angle of 90° and a temperature of 25° C. The encapsulation efficiency of LNPs was determined using the Quant-iT RiboGreen RNA Quantification Kit (Thermo Fisher Scientific, UK) according to the manufacturer's instructions.

[5] = target: T1, T7 RNA polymerase; experiment: In vitro transcription yield of mRNA using cap analogs; type: biochemical; settings: for Yield per unit template: in vitro transcription, 1 μg DNA template, 37° C., 2 hours
Procedure: • (1) Capping synthesis using cap analogs
The plasmid was first linearized with plasmid linearizing enzyme, and then the linearized plasmid was purified. • (2) In vitro transcription and synthesis of mRNA
as §1

Structure (SMILES)	Multiple of m6A (relative fluorescence intensity) [1]	Capping rate [2]	Increase relative to 5227 (capping rate) [2]	Decapping rate (%) of DCP2 enzyme [3]	Decrease relative to N-7113 (decapping rate) [3]	Particle size [4]	PDI [4]	EE [4]	Yield per unit template [5]	Increase relative to 5227 (in vitro transcription yield) [5]	Relative fluorescence intensity [1]
COC1[C@H](n2cnc3c(N)ncnc32)O[C@H](COP(=O)(O)OP(=O)(O)OP(=O)(O)OC[C@@]23COC([C@H]([n+]4cn(C)c5c(=O)[nH]c(N)nc54)O2)[C@H]3O)[C@H]1OP(=O)(O)OCC1OC(n2cnc3c(=O)[nH]c(N)nc32)C(O)C1O (stereo partly drawn) [Compound 14, reference compound]	2.9	78.3%	8.9%	26.8%	17.0%	79.35 nm	0.073	94.2%	123.2 µg	−8.2%	–
CO[C@@H]1[C@H](OP(=O)(O)OC[C@H]2O[C@@H](n3cnc4c(=O)[nH]c(N)nc43)[C@H](O)[C@@H]2O)[C@@H](COP(=O)(O)OP(=O)(O)OP(=O)(O)OC[C@H]2OC([n+]3cn(C)c4c(=O)[nH]c(N)nc43)[C@H](NC(C)=O)[C@@H](O)[C@@H]2O)O[C@H]1n1cnc2c(N)ncnc21 (stereo partly drawn) [YK-CAP-102]	0.9	30.2%	−58.0%	41.2%	2.6%	73.22 nm	0.055	95.3%	44.1 µg	−67.1%	0.34
CO[C@@H]1[C@H](OP(=O)(O)OC[C@H]2O[C@@H](n3cnc4c(=O)[nH]c(N)nc43)[C@H](O)[C@@H]2O)[C@@H](COP(=O)(O)OP(=O)(O)OP(=O)(O)OC[C@H]2O[C@@H](C[n+]3cn(C)c4c(=O)[nH]c(N)nc43)[C@H](O)[C@@H]2O)O[C@H]1n1cnc2c(N)ncnc21 [YK-CAP-103]	2.0	71.1%	−1.1%	36.5%	7.3%	67.24 nm	0.053	94.7%	88.0 µg	−34.4%	0.77
CO[C@@H]1[C@H](OP(=O)(O)OC[C@H]2O[C@@H](n3cnc4c(=O)[nH]c(N)nc43)[C@H](O)[C@@H]2O)[C@@H](COP(=O)(O)OP(=O)(O)OP(=O)(O)OC[C@H]2O[C@@H]([n+]3cn(C)c4c(=O)[nH]c(N)nc43)[C@H](O)[C@]2(F)CN(C)C)O[C@H]1n1cnc2c(N)ncnc21 [YK-CAP-104]	2.1	77.2%	7.4%	46.1%	−2.3%	69.24 nm	0.047	95.7%	73.2 µg	−45.5%	0.81
CO[C@@H]1[C@H](OP(=O)(O)OC[C@H]2O[C@@H](n3cnc4c(=O)[nH]c(N)nc43)[C@H](O)[C@@H]2O)[C@@H](COP(=O)(O)OP(=O)(O)OP(=O)(O)OC[C@H]2O[C@@H]([n+]3cn(C)c4c(=O)[nH]c(N)nc43)[C@H](O)[C@]2(C)C#N)O[C@H]1n1cnc2c(N)ncnc21 [YK-CAP-105]	1.9	69.3%	−3.6%	33.9%	9.9%	77.22 nm	0.063	95.7%	82.3 µg	−38.7%	0.72
